In one assay the test system is HIV-1IIIB. The assay can be described thus: Inhibition of HIV-1 IIIB replication in MT-2 cells, p24 production by ELISA. Type of assay: cell-based. Conditions: for fold more potent than 12 and 13: replication of HIV-1 IIIB and 94UG103, relative to 12 and 13. (In an ELISA, binding on a coated surface is turned into a signal by an enzyme label.)
The subject of another assay is HIV-1. Conditions: previously identified; cited from earlier work.

In the case of `Cc1ccc(-c2ccc(/C=C3\SC(=S)N(CCc4ccccc4)C3=O)o2)cc1C(=O)O` [11b, 2-Methyl-5-{5-[4-oxo-3-phenethyl-2-thioxothiazolidin-5-ylidenemethyl]furan-2-yl}-benzoic acid], in the assay on HIV-1IIIB, the “fold more potent than 12 and 13” value was “more than 20 fold”.
On to `O=C(O)c1cc(-n2cccc2)ccc1Cl` [compound 13, N-(3-carboxy-4-chloro) phenylpyrrole], for which the “inhibit HIV-1 infection” value in the assay on HIV-1 is “low μM level”.
Take `O=C(O)c1cc(-c2ccc(/C=C3\SC(=S)N(CCc4ccccc4)C3=O)o2)ccc1Br` [11i, 2-Bromo-5-{5-[4-oxo-3-phenethyl-2-thioxothiazolidin-5-ylidenemethyl]furan-2-yl}-benzoic acid]: the “fold reduction of anti-HIV-1 activity” value in the assay on HIV-1IIIB (relative to unsubstituted 11a) was ~ 7 fold.
Consider `O=C(O)c1cc(-c2ccc(/C=C3\SC(=S)N(CCc4ccccc4)C3=O)o2)ccc1Cl` [11d, 2-Chloro-5-{5-[4-oxo-3-phenethyl-2-thioxothiazolidin-5-ylidenemethyl]furan-2-yl}-benzoic acid], for which the “fold greater potency than 13” value in the assay with HIV-1IIIB (relative to 13) is recorded as ~ 25 fold. Further, the “fold more potent than 12 and 13” value with HIV-1IIIB is on record as “more than 20 fold”.
For the compound `Cc1ccc(C)n1-c1ccc(C(=O)O)c(O)c1` [compound 12, N-(4-carboxy-3-hydroxy)phenyl-2,5-dimethylpyrrole], the “inhibit HIV-1 infection” value in the assay with HIV-1 is given as “low μM level”.
With `O=C(O)c1cccc(-c2ccc(/C=C3\SC(=S)N(CCc4ccccc4)C3=O)o2)c1` [11a, 3-{5-[4-Oxo-3-phenethyl-2-thioxothiazolidin-5-ylidenemethyl]furan-2-yl}-benzoic acid], the “fold more potent than 12 and 13” value in the assay on HIV-1IIIB is listed as “more than 20 fold”.

These data come from paper PMC2802534 (Journal of medicinal chemistry, 2009).
